Results published in article PMC7732531 (Frontiers in Pharmacology, 2020).

What was measured:
[1] = Protein binding by rapid equilibrium dialysis, rat plasma; conditions: 1 µM
Description: The fraction of unbound YL-IPA08 in plasma and liver microsomes of rat and human, and brain homogenates of rat were determined utilizing Rapid Equilibrium Dialysis method ([Waters et al., 2008]). Rat brain homogenate was harvested in 4-fold volume (w/v) of PBS (pH 7.4). YL-IPA08 were spiked into fresh plasma, rat brain homogenate, liver microsomes (0.2 mg/ml protein) at concentration of 1 µM, and then dialyzed against […] on a shaker at 37°C for 4 h. To avoid the high non-specific binding of YL-IPA08, 0.01% Tween 80 was added in the incubation mixture. At the end of the incubation, protein was precipitated with acetonitrile (containing IS) and analyzed by LC-MS/MS. Phenacetin, quinidine, and warfarin were selected as positive control for the protein binding test.
The unbound fraction of YL-IPA08 in plasma or liver microsomes (ƒu,x) was calculated as shown in Eq. 2, and unbound fraction in the tissue homogenate (ƒu,b) was calculated according to Eq. 3. fu,x = Concbuffer chamber/Concplasma/liver microsomes chamber (2) fu,b = Concbuffer chamber/Concbrain homogenate chamber (3) The measured unbound fractions would be higher when a tissue is homogenized and diluted in buffer, the unbound fractions in an undiluted tissues (ƒu,brain) were calculated using Eq. 4 ([Kalvass and Maurer, 2002]). Undiluted fu,brain=1/D/((1/fu,brain homogenate)−1)+1/D (4) Where D represents the fold of dilution factor in brain homogenates. The free fraction of plasma and undiluted tissue is used in tissue-to-plasma exposure ratio calculation.

[2] = Transcellular transport experiment with Caco-2 cells; conditions: human, Caco-2
Description: (§1) Caco-2 cell lines were cultured (ATCC, Manassas, VA, United States) as described previously ([Liu et al., 2014]). Briefly, the cells were cultured at 37°C in 5% CO2 at 90% humidity in DMEM high glucose medium containing 20% fetal bovine serum, 1% nonessential amino acids, 100 U/ml penicillin and 1% streptomycin. For the efflux studies, the cells were seeded onto polyethylene terephthalate Millicell® cell culture inserts (0.4 μm pore size, 6.5 mm diameter, Millipore Corporation, Billerica, MA, United States) at a density of 1.7 × 10^5 cells/ml. The culture medium was refreshed on the day after seeding, after which it was refreshed every other day and on the day before the transport experiment. The cells were cultured for 20–22 days after seeding and then evaluated by measuring the transepithelial electrical resistance (TEER) (Millicell ERS®, Millipore Corporation) before experiments. […] Transepithelial permeability studies for YL-IPA08 (10 μM) were conducted from apical to basolateral side (A-B) and basolateral to apical side (B-A) for 120 min 0.2% BSA was included in the receiver solution to avoid nonspecific binding. At 60, 90, and 120 min, half volume of solution from receiver side was withdrawn, and same volume of HBSS was immediately added. Obtained samples were precipitated by adding 4× volumes of acetonitrile containing IS and centrifuged. The supernatants were stored in −20°C until further analysis by LC-MS/MS.
(§2) The in vitro t1/2 in liver microsomal incubation was calculated from the semi-log plot of percentage remaining vs. incubation time and intrinsic clearance (Clint, ml/min/mg protein) was calculated as Eq. 1: CLint=0.693/in vitro t1/2×volume of incubation (μl)/amount of microsomal protein in incubation (mg) (1) ([Suzuki et al., 2003]).Apparent permeability was obtained according to the equation Papp = (dQ/dt)/(A × C0), where dQ/dt is the mass transport rate (determined from the slope of the amount transported vs. time plot), A is the surface area of the monolayer, and C0 is the initial concentration of YL-IPA08 in the donor chamber ([Suzuki et al., 2003]). The efflux ratio was calculated for each study using the following equation: […] = Papp(B–A)/Papp(A–B), where Papp(B–A) and Papp(A–B) represent apparent drug permeability in the B to A and A to B direction, respectively. An efflux ratio greater than 2 indicates net efflux.

Caco-2 cells = experiment: as above; conditions: for Concentration, A-B-A-90min / Concentration, A-B-B-90min: Caco-2, A→B; for Concentration, A-B-A-90min: apical (donor) side; for Concentration, A-B-B-90min: basolateral (receiver) side; for Concentration, B-A-A-90min / Concentration, B-A-B-90min: Caco-2, B→A; for Concentration, B-A-A-90min: apical (receiver) side; for Concentration, B-A-B-90min: basolateral (donor) side; for Concentration, DOA: Caco-2, apical donor at time 0; for Concentration, DOB: Caco-2, basolateral donor at time 0
Description: as §1, §2

Protein biding (%) ([1]; Rat plasma, dialysis 4 h) | Papp A→B at 120 min, 10 μM [2] | Papp B→A at 120 min, 10 μM [2] | efflux ratio at 120 min, 10 μM [2] | Concentration, A-B-A-90min (Caco-2 cells) | Concentration, A-B-B-90min (Caco-2 cells) | Concentration, B-A-A-90min (Caco-2 cells) | Concentration, B-A-B-90min (Caco-2 cells) | Concentration, DOA (Caco-2 cells) | Concentration, DOB (Caco-2 cells) | Protein biding (%) ([1]; rat, 4 h) | Structure (SMILES)
58.48 ± 2.26% |  |  |  |  |  |  |  |  |  |  | CCOc1ccc(NC(C)=O)cc1 [phenacetin, reference compound]
 | 4.35 ± 2.06 ×10⁻⁶ cm/s | 2.78 ± 0.09 ×10⁻⁶ cm/s | 0.63 | 4.608 ± 0.43 µM | 0.079 ± 0.026 µM | 0.172 ± 0.019 µM | 7.267 ± 0.597 µM | 10.633 ± 2.369 µM | 10.367 ± 1.118 µM |  | CC(C)NCC(O)COc1cccc2ccccc12 (stereo not drawn) [Propranolol]
78.08 ± 4.49% |  |  |  |  |  |  |  |  |  |  | C=C[C@H]1C[N@@]2CC[C@H]1C[C@@H]2[C@@H](O)c1ccnc2ccc(OC)cc12 [quinidine, reference compound]
 |  |  |  |  |  |  |  |  |  | 99.67 ± 0.08% | CC(=O)CC(c1ccccc1)c1c(O)c2ccccc2oc1=O (stereo not drawn) [warfarin, reference compound]
 | 0.45 ± 0.17 ×10⁻⁶ cm/s | 2.63 ± 0.7 ×10⁻⁶ cm/s | 6.25 | 8.117 ± 0.473 µM | 0.009 ± 0.002 µM | 0.203 ± 0.027 µM | 8.867 ± 0.388 µM | 11.683 ± 3.499 µM | 12.667 ± 2.619 µM |  | C[C@H]1O[C@@H](O[C@H]2[C@@H](O)C[C@H](O[C@H]3[C@@H](O)C[C@H](O[C@H]4CC[C@@]5(C)[C@H](CC[C@@H]6[C@@H]5C[C@@H](O)[C@]5(C)[C@@H](C7=CC(=O)OC7)CC[C@]65O)C4)O[C@@H]3C)O[C@@H]2C)C[C@H](O)[C@@H]1O [Digoxin]
